Peptide remaining after proteinase K exposure data for 1 molecule are collected here from paper PMC11117309.

Non-standard residues stand in square brackets, D forms with d. Residues, ends and D or L forms follow the SMILES beside them.

In turn, `CC[C@@H](C)[C@@H](NC(=O)[C@@H](C)NC(=O)[C@@H](CCC(=O)O)NC(=O)[C@H](NC(=O)[C@@H](CC(C)C)NC(=O)[C@@H](CCC(=O)O)NC(=O)CNC(=O)[C@@H](C)NC(=O)[C@@H](C)NC(=O)[C@@H](CC(C)C)NC(=O)[C@H](NC(=O)[C@@H](Cc1ccccc1)NC(=O)[C@@H](CC(C)C)NC(=O)[C@@H](CCC(=O)O)NC(=O)[C@@H](CC(C)C)NC(=O)[C@@H](Cc1ccccc1)NC(=O)[C@@H](C)NC(=O)[C@@H](CCCCN)NC(=O)CNC(=O)[C@H](N)CCCNC(=N)N)[C@H](C)CC)[C@H](C)CC)C(=O)N[C@H](CC(=O)O)C(=O)N[C@H](CCCNC(=N)N)C(=O)N[C@@H](C(=O)N[C@H](Cc1ccccc1)C(=O)N[C@@H](C(=O)NCC(=O)N[C@H](CCC(=O)O)C(=O)N[C@H](C)C(=O)N[C@H](Cc1c[nH]cn1)C(=O)O)[C@H](C)O)[C@H](C)O` (H-[dR]G[dK][dA][dF][dL][dE][dL][dF][dI][dL][dA][dA]G[dE][dL][dI][dE][dA][dI][dD][dR][dT][dF][dT]G[dE][dA][dH]-OH) displayed a peptide remaining after proteinase K exposure of more than 88%.
